Assay results from publication PMC5555576, “Selective small-chemical inhibitors of protein arginine methyltransferase 5 with anti-lung cancer activity” (PLoS ONE, 2017).
Several values for one entry are separate records, joined by “and”; a condition that tells them apart may be missing. Equal values may be shown once. Read-outs that look alike come from different tables or passages of the source.

Key:
[1] = biological target: T1, PRMT5 (Homo sapiens, UniProt O14744); assay: Radioactive methyltransferase assay, PRMT5; format: biochemical
T1 construct: His6; made in house; host or cells: E. coli BL21(ED3) [sic]
T1 sequence (O14744 whole entry): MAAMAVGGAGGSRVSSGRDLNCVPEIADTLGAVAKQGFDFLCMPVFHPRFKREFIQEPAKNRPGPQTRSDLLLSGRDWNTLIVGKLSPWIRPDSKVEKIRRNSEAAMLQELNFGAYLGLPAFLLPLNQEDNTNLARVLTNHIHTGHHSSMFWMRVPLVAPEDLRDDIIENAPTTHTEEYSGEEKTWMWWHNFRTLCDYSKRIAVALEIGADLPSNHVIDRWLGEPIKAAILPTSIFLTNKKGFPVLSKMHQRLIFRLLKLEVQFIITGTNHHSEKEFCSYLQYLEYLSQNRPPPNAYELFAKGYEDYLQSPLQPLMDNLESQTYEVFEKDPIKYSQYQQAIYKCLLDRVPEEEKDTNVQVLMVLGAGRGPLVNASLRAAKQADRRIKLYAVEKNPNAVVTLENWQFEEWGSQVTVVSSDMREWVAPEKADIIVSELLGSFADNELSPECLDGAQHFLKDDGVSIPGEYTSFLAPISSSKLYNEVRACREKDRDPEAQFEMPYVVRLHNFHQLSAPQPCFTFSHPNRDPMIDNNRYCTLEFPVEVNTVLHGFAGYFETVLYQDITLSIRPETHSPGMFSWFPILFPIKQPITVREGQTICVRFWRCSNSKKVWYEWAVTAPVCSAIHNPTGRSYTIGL
Description: (§1) Methylation reactions were performed as previously described with a few modifications. Reaction mixtures (40 μl) containing 1.2 μg of PRMT5, 98 ng of PRMT1 or 98 ng of PRMT3; 2 μg of SmD3 or histones; 1 μCi of S-[methyl-^3H]adenosylmethionine (H^3-AdoMet; PerkinElmer); and 5 μM AdoMet were incubated in 50 mM Tris-HCl (pH 7.5)–1 mM EGTA–1 mM EDTA at 30°C for 2 h. Reaction mixtures (20 μl) were boiled in 5 μl of 5x SDS sample buffer and separated on a 15% polyacrylamide gel. Gels were fixed for 30 min in 40% methanol–10% acetic acid, incubated in 20 ml of Amplify (Amersham Life Science) for 10 min, dried and exposed to X-ray film at -80°C. IC50 was calculated by linear regression analysis of percent inhibition. The other half (20 μl) of each reaction mixture was spread onto DE81 chromatography paper discs (Whatman). The paper discs were washed 4 times with 50 mM NaHCO3 and dried. The amounts of methylated products were quantified by liquid scintillation.
In vitro methylation reactions were performed with recombinant PRMT5 (1.2 μg), PRMT1 ([…]) or PRMT3 (89 ng); [H^3]-AdoMet; and different substrates in the presence of identified compounds. […] The recombinant SmD3 (2 μg) was used as the substrate in the absence (lane 2) or presence of 1, 10 or 100 μM compounds as indicated. Reaction mixtures were separated on an SDS–15% polyacrylamide gel and the gel was dried under vacuum and exposed to film. […] Recombinant histones H4 or H2A (1 μg) were used as substrates of PRMT5 in the methylation assay in the absence or presence of 100 μM compounds as indicated. Reaction mixtures were spread onto DE81 chromatography paper discs. After a wash, the amounts of methylated products on discs were quantified by liquid scintillation. […] PRMT1 was incubated with purified histones (1 μg) or recombinant E2F1 (1 μg) as substrates in the absence (lane 2) or presence of 100 μM compounds as indicated. Reaction mixtures were separated on an SDS–15% polyacrylamide gel and the gel was dried and exposed to film.

[2] = tested on: A549 cells; assay: Cell growth by cell counting, A549; format: cell-based; conditions: for A549 cell growth inhibition: various concentrations and time points
Description: Lung cancer A549 (ATCC) and PC14 (ATCC) cells were cultured in minimum essential medium (Cellgro) with 10% (v/v) fetal bovine serum (FBS) (HyClone), 2% vitamins, 1% L-glutamine, 1% non-essential amino acids and 1% sodium pyruvate. For the treatment with identified compounds, cells (2, 000 cells/well) were seeded in 24-well plates in the medium containing 2% FBS. The fresh medium containing identified compounds was added 24 hours later. Cells were cultured for various times in a CO2 incubator and the cell numbers were counted. Each experiment was performed in triplicate.
A, Lung cancer A549 cells were cultured in the presence of various concentrations (μM) of identified compounds and growth inhibition was determined by cell counting at various time points. B, Lung cancer PC14 cells were cultured in the presence of DMSO or various concentrations of identified compounds and growth inhibition was determined by cell counting 2 days post the compound treatment. C, The serum concentrations of compound C9 after oral administration. Mice were sacrificed and blood samples were collected immediately before (0 h) and at 2, 4, 6 and 8h after compound administration.
Fig 8 The C9 analogue has improved PRMT5-inhibitory efficacy and oral drug availability. A, The chemical structure of the C9 analogue. B, Compound C9a inhibited methylation of SmD3 by PRMT5. The recombinant SmD3 (2 μg) was used as the substrate in the absence (lane 5) or presence of 1, 10 or 100 μM compounds as indicated. […] C, C9a has improved efficacy to inhibit lung cancer growth. A549 cells were cultured in the presence of various concentrations of C9 or C9a and growth inhibition was determined by cell counting 2 days post the compound treatment. […] Male BALB/c mice were randomized and administrated C9a by oral gavage and compound concentrations in blood samples were determined.

[3] = biological target: T2, PRMT5 F225M (Homo sapiens, UniProt O14744, F327M); assay: Radioactive methyltransferase assay, mutant PRMT5; format: biochemical; conditions: F225M mutant PRMT5, SmD3 substrate, Fig 4D
T2 construct: His6; made in house; host or cells: bacteria (E. coli BL21(ED3) for the wild type)
T2 sequence (O14744 whole entry F327M): as the sequence (O14744 whole entry) above, with F327M counted along it
Description: as §1
The inhibitory activity of the compounds may stem from this interaction. To test this possibility, we conducted site-directed mutagenesis to mutate Phe225 in human PRMT5 (corresponding to Phe379 in the C. elegans PRMT5) to Met. The mutated PRMT5 was expressed in bacteria and purified by Ni-nitrilotriacetic acid (Ni-NTA) affinity chromatography (Fig 4A). The activity of the mutant PRMT5 was examined by the radioactive methyltransferase assay. […] The IC50 values for the mutant PRMT5 increased from 4.3 to 183 folds higher than those for the wild type PRMT5 (Fig 4D). […] The results also can help explain the specificity of the compounds to PRMT5. However, the contribution of this interaction to inhibition varies among the compounds. For example, compound C2 interacts with three amino acid residues (Lys451, Glu450, and Phe379) (Fig 3A) with the mutation of Phe to Met resulting in a 50-times higher IC50 (Fig 4C and 4D).
Fig 4 The conserved phenylalanine residue in PRMT5 is critical for inhibition by the five compounds. A, DS-PAGE of recombinant wild type (WT) and F225M mutant (MT) PRMT5. The gel was stained with Coomassie Brilliant Blue R250. A band corresponding to an unknown bacterial protein is indicated (star). B, The F225M mutation increased the methytransferase activity of PRMT5. In vitro methylation reactions were performed with recombinant wild type (lanes 2–4) or mutant (lanes 5–7) PRMT5 (1.2, 2.4 or 4.8 μg) and SmD3 (2 μg) as the substrate. C, The F225M mutation in PRMT5 decreased inhibition of arginine methylation by the compounds. The reaction mixture contained SmD3 (2 μg); wild type or mutant PRMT5 (1.2 μg); and 1, 10 or 100 μM compounds as indicated. D, The F225M mutation in PRMT5 […] of the compounds, as determined by quantitation and analysis of methylation assay results. TEXT PRINTED IN THE PICTURE: (D) C2: IC50 (μM) PRMT5: 0.1; IC50 (μM) PRMT5 F225M: 5.0 | (D) C5: IC50 (μM) PRMT5: 0.8; IC50 (μM) PRMT5 F225M: 3.5 | (D) C6: IC50 (μM) PRMT5: 0.5; IC50 (μM) PRMT5 F225M: 7.0 | (D) C9: IC50 (μM) PRMT5: 6.0; IC50 (μM) PRMT5 F225M: 45.0 | (D) C11: IC50 (μM) PRMT5: 0.3; IC50 (μM) PRMT5 F225M: 55.0

[4] = methylation of SmD3 by PRMT5, Table 1 prints no unit, μM, read-out: IC50

CCn1c(=O)[nH]c2cc(C(=O)Nc3ccc(OC)cc3)ccc2c1=O [Compound C5]
IC50 [1, 4]: 0.75 µM
IC50 ([1]; wild type PRMT5, SmD3 substrate, Fig 4D, read-out: IC50 (μM) PRMT5): 0.8 µM
A549 cell growth inhibition [2]: inhibited A549 cell growth in a dosage- and time-dependent manner at sub μM concentrations
IC50 [3]: 3.5 µM

COc1ccc(Nc2ncnc3c2cnn3Cc2ccc(C)cc2)cc1 [Compound C9]
IC50 [1, 4]: ~6 µM and 6 µM
IC50 ([2]; Homo sapiens, A549 cells): ~1000 nM
A549 cell growth inhibition [2]: inhibited A549 cell growth in a dosage- and time-dependent manner at sub μM concentrations
IC50 [3]: 45 µM

Nc1cccc(Nc2ncnc3c2cnn3Cc2ccccc2)c1 [Compound C9a]
inhibition of PRMT5 activity compared to C9 ([1]; SmD3 substrate, 1, 10 or 100 μM): higher efficacy
IC50 [1, 4]: 0.7 µM
inhibition of growth of lung cancer cells compared to C9 ([2]; A549 cells, 2 days): higher efficacy

Cn1cc(C(c2ccc(O)c(O)c2O)c2cn(C)c3ccccc23)c2ccccc21 [Compound C11]
IC50 [1, 4]: 0.3 µM
A549 cell growth inhibition [2]: inhibited A549 cell growth in a dosage- and time-dependent manner at sub μM concentrations
IC50 [3]: 55 µM
